In brackets after ≈: the same amount, converted by molar mass. Read-outs that look alike come from different tables or passages of the source.
System: A. fum.
Experiment: In vitro antifungal MIC, NCCLS M38P broth method in RPMI 1640/MOPS pH 7
Type: cell-based, Aspergillus fumigatus
Conditions: for MIC: Aspergillus fumigatus
Text: The in vitro evaluation of the antifungal activity of the compound of this invention (as shown in Table I) can be performed by determining the minimum inhibitory concentration (MIC) which is the concentration of the test compound in Rosewell Park Memorial Institute (RPMI) 1640 liquid medium buffered with 3-(Morpholino)propane sulfonic acid (MOPS) to pH 7, at which there is significant inhibition of the particular fungi. In practice the National Committee for Clinical Laboratory Standard (NCCLS) M27A document for Candida and Cryptococcus and M38P for Aspergillus was used to determine the MIC and readings recorded only when the Quality Control results fell into the acceptable range. After MIC results had been recorded, 100 μL from each of the well showing no growth was spread over Sabouraud Dextrose Agar (SDA) to determine the minimum fungicidal concentration (MFC).

[1] = A. fumigatus strain 1008, RPMI 1640, MOPS pH 7
[2] = A. fumigatus strain Si-l, RPMI 1640, MOPS pH 7
[3] = A. fumigatus strain 1008, RPMI 1640, MOPS pH 7, read-out: MIC (A. fum.) 1008
[4] = A. fumigatus strain Si-l, RPMI 1640, MOPS pH 7, read-out: MIC (A. fum.) Si-l
[5] = pH 7, read-out: MIC (A. fum.) 1008
[6] = pH 7, read-out: MIC (A. fum.) Si-l

MIC [3] [µg/mL] | MIC [4] [µg/mL] | SMILES | other results
– | – | CCCCCCCCNC(=S)N(NC(=O)OC(C)(C)C)[C@H](C)[C@](O)(Cn1cncn1)c1ccc(F)cc1F [Compound No. 15] | MIC (A. fum.) 1008 [1]: >16 µg/mL; MIC (A. fum.) Si-l [2]: >16 µg/mL
1 (≈ 1.82 µM) | 0.25 (≈ 0.456 µM) | C[C@@H](N(N)C(=S)Nc1ccc(OCC(F)(F)C(F)F)cc1)[C@](O)(Cn1cncn1)c1ccc(F)cc1F [Compound No. 31, 2-[(1R,2R)-2-(2,4-difluorophenyl)-2-hydroxy-1-methyl-3-(1H-1,2,4-triazol-1-yl)propyl]-4-[4-(2,2,3,3-tetrafluoropropoxy)phenyl]thiosemicarbazide] | –
– | – | C[C@@H](N(N)C(=S)NCc1ccco1)[C@](O)(Cn1cncn1)c1ccc(F)cc1F [Compound No. 35, 2-[(1R,2R)-2-(2,4-difluorophenyl)-2-hydroxy-1-methyl-3-(1H-1,2,4-triazol-1-yl)propyl]-4-[2-furanmethyl]thiosemicarbazide] | MIC (A. fum.) 1008 [1]: 4 µg/mL (≈ 9.47 µM); MIC (A. fum.) Si-l [2]: 4 µg/mL (≈ 9.47 µM)
– | – | C[C@@H](N(N)C(=S)Nc1cnc2ccccc2c1)[C@](O)(Cn1cncn1)c1ccc(F)cc1F [Compound No. 39, 2-[(1R,2R)-2-(2,4-Difluorophenyl)-2-hydroxy-1-methyl-3-(1H-1,2,4-triazol-1-yl)propyl]-4-[quinolin-3-yl]thiosemicarbazide] | MIC [5]: 16 µg/mL (≈ 34.1 µM); MIC [6]: 4 µg/mL (≈ 8.52 µM)
– | – | C[C@@H](n1ncn(-c2ccc(-n3ncnn3)cc2)c1=S)[C@](O)(Cn1cncn1)c1ccc(F)cc1F [Compound No. 44] | MIC (A. fum.) 1008 [1]: 2 µg/mL (≈ 4.03 µM); MIC (A. fum.) Si-l [2]: 2 µg/mL (≈ 4.03 µM)
1 (≈ 2.01 µM) | 0.5 (≈ 1.01 µM) | C[C@@H](n1ncn(-c2ccc(C(F)(F)F)cc2)c1=S)[C@](O)(Cn1cncn1)c1ccc(F)cc1F [Compound No. 45, 2-[(1R,2R)-2-(2,4-difluorophenyl)-2-hydroxy-1-methyl-3-(1,2,4-triazol-1-yl)propyl]-4-[4-trifluoromethylphenyl]-(2H,4H)-1,2,4-triazol-3-thione] | –
– | – | C[C@@H](N(N)C(=O)Nc1ccc(Cl)cc1)[C@](O)(Cn1cncn1)c1ccc(F)cc1F [Compound No. 28, 2-[(1R,2R)-2-(2,4-difluorophenyl)-2-hydroxy-1-methyl-3-(1H-1,2,4-triazol-1-yl)propyl]-4-[4-chlorophenyl]semicarbazide] | MIC [5]: > 16 µg/mL; MIC [6]: > 16 µg/mL
4 (≈ 8.22 µM) | 2 (≈ 4.11 µM) | C[C@@H](N(N)C(=S)Nc1ccc(C(F)(F)F)cc1)[C@](O)(Cn1cncn1)c1ccc(F)cc1F [Compound No. 33, 2-[(1R,2R)-2-(2,4-difluorophenyl)-2-hydroxy-1-methyl-3-(1H-1,2,4-triazol-1-yl)propyl]-4-[4-trifluoromethylphenyl]thiosemicarbazide] | –
2 (≈ 3.98 µM) | 2 (≈ 3.98 µM) | C[C@@H](N(N)C(=S)Nc1ccc(OC(F)(F)F)cc1)[C@](O)(Cn1cncn1)c1ccc(F)cc1F [Compound No. 34, 2-[(1R,2R)-2-(2,4-Difluorophenyl)-2-hydroxy-1-methyl-3-(1H-1,2,4-triazol-1-yl)propyl]-4-[4-trifluoromethoxyphenyl]thiosemicarbazide] | –
– | – | C[C@@H](N(NC(=O)OC(C)(C)C)C(=S)Nc1cccc2ccccc12)[C@](O)(Cn1cncn1)c1ccc(F)cc1F [Compound No. 14] | MIC (A. fum.) 1008 [1]: >16 µg/mL; MIC (A. fum.) Si-l [2]: >16 µg/mL
0.5 (≈ 1.1 µM) | 1 (≈ 2.2 µM) | C[C@@H](N(N)C(=S)Nc1ccc(Cl)cn1)[C@](O)(Cn1cncn1)c1ccc(F)cc1F [Compound No. 37, 2-[(1R,2R)-2-(2,4-Difluorophenyl)-2-hydroxy-1-methyl-3-(1H-1,2,4-triazol-1-yl)propyl]-4-[3-chloropyridin-6-yl]thiosemicarbazide] | –
– | – | COC(=O)C(CCSC)n1cnn([C@H](C)[C@](O)(Cn2cncn2)c2ccc(F)cc2F)c1=S (stereo partly drawn) [Compound No. 52, Methyl-2-methylthioethyl-2-[[(1R,2R)-2-(2,4-difluorophenyl)-2-hydroxy-1-methyl-3-(1H-1,2,4-triaolyl)propyl]-(2H,4H)-1,2,4-triazol-3-thion-4-yl]acetate] | MIC (A. fum.) 1008 [1]: >16 µg/mL; MIC (A. fum.) Si-l [2]: >16 µg/mL
– | – | C[C@@H](N(NC(=O)OC(C)(C)C)C(=O)Nc1ccc(Cl)cc1)[C@](O)(Cn1cncn1)c1ccc(F)cc1F [Compound No. 25, 1-t-Butoxycarbonyl-2-[(1R,2R)-2-(2,4-difluorophenyl)-2-hydroxy-1-methyl-3-(1H-1,2,4-triazol-1-yl)propyl]-4-[4-chlorophenyl]semicarbazide] | MIC [5]: > 16 µg/mL; MIC [6]: > 16 µg/mL
– | – | C[C@@H](n1ncn(-c2ccc([N+](=O)[O-])cc2)c1=S)[C@](O)(Cn1cncn1)c1ccc(F)cc1F [Compound No. 43, 2-[(1R,2R)-2-(2,4-difluorophenyl)-2-hydroxy-1-methyl-3-(1,2,4-triazol-1-yl)propyl]-4-[4-nitrophenyl]-(2H,4H)-1,2,4-triazol-3-thione] | MIC [5]: 4 µg/mL (≈ 8.45 µM); MIC [6]: 2 µg/mL (≈ 4.22 µM)
> 16 | > 16 | C[C@@H](N(NC(=O)OC(C)(C)C)C(=S)Nc1ccc(F)cc1)[C@](O)(Cn1cncn1)c1ccc(F)cc1F [Compound No. 1] | –
> 16 | > 16 | COc1ccc(NC(=S)N(N)[C@H](C)[C@](O)(Cn2cncn2)c2ccc(F)cc2F)c(OC)c1 [Compound No. 32, 2-[(1R,2R)-2-(2,4-difluorophenyl)-2-hydroxy-1-methyl-3-(1H-1,2,4-triazol-1-yl)propyl]-4-[2,4-dimethoxyphenyl]thiosemicarbazide] | –
– | – | COC(=O)C(CC(C)C)n1cnn([C@H](C)[C@](O)(Cn2cncn2)c2ccc(F)cc2F)c1=S (stereo partly drawn) [Compound No. 51, Methyl-2-isobutyl-2-[[(1R,2R)-2-(2,4-difluorophenyl)-2-hydroxy-1-methyl-3-(1H-1,2,4-triaolyl)propyl]-(2H,4H)-1,2,4-triazol-3-thion-4-yl]acetate] | MIC (A. fum.) 1008 [1]: >16 µg/mL; MIC (A. fum.) Si-l [2]: <16 µg/mL
0.25 (≈ 0.448 µM) | 0.125 (≈ 0.224 µM) | C[C@@H](n1ncn(-c2ccc(OCC(F)(F)C(F)F)cc2)c1=S)[C@](O)(Cn1cncn1)c1ccc(F)cc1F [Compound No. 42, 2-[(1R,2R)-2-(2,4-difluorophenyl)-2-hydroxy-1-methyl-3-(1,2,4-triazol-1-yl)propyl]-4-[4-(2,2,3,3-tetrafluoropropoxy)phenyl]-(2H,4H)-1,2,4-triazol-3-thione] | –
– | – | C[C@@H](n1ncn(-c2ccc(O)cc2)c1=S)[C@](O)(Cn1cncn1)c1ccc(F)cc1F [Compound No. 41, 2-[(1R,2R)-2-(2,4-difluorophenyl)-2-hydroxy-1-methyl-3-(1,2,4-triazol-1-yl)propyl]-4-[4-hydroxyphenyl]-(2H,4H)-1,2,4-triazol-3-thione] | MIC [5]: > 16 µg/mL; MIC [6]: > 16 µg/mL
2 (≈ 3.9 µM) | 0.5 (≈ 0.976 µM) | C[C@@H](n1ncn(-c2ccc(OC(F)(F)F)cc2)c1=S)[C@](O)(Cn1cncn1)c1ccc(F)cc1F [Compound No. 46, 2-[(1R,2R)-2-(2,4-Difluorophenyl)-2-hydroxy-1-methyl-3-(1H-1,2,4-triazol-1-yl)propyl]-4-[4-trifluoromethoxyphenyl]-(2H,4H)-1,2,4-triazol-3-thione] | –

SMILES | MIC [3] [µg/mL] | MIC [4] [µg/mL] | other results
C[C@@H](N(NC(=O)OC(C)(C)C)C(=O)Nc1ccc(OCC(F)(F)C(F)F)cc1)[C@](O)(Cn1cncn1)c1ccc(F)cc1F [Compound No. 26, 1-t-Butoxycarbonyl-2-[(1R,2R)-2-(2,4-difluorophenyl)-2-hydroxy-1-methyl-3-(1H-1,2,4-triazol-1-yl)propyl]-4-[4(2,2,3,3-tetrafluoropropoxy)phenyl]semicarbazide] | > 16 | > 16 | –
COc1ccc(NC(=S)N(NC(=O)OC(C)(C)C)[C@H](C)[C@](O)(Cn2cncn2)c2ccc(F)cc2F)c(OC)c1 [Compound No. 4, 1-t-Butoxycarbonyl-2-[(1R,2R)-2-(2,4-difluorophenyl)-2-hydroxy-1-methyl-3-(1H-1,2,4-triazol-1-yl)propyl]-4-[2,4-dimethoxyphenyl]thiosemicarbazide] | > 16 | > 16 | –
C[C@@H](N(NC(=O)OC(C)(C)C)C(=S)Nc1ccc(-n2ncnn2)cc1)[C@](O)(Cn1cncn1)c1ccc(F)cc1F [Compound No. 10, 1-t-Butoxycarbonyl-2-[(1R,2R)-2-(2,4-difluorophenyl)-2-hydroxy-1-methyl-3-(1H-1,2,4-triazol-1-yl)propyl]-4-[4-(1,2,3,4-tetrazol-2-yl)phenyl]thiosemicarbazide] | > 16 | > 16 | –
C[C@@H](N(NC(=O)OC(C)(C)C)C(=S)Nc1ccc(OC2CCCCO2)cc1)[C@](O)(Cn1cncn1)c1ccc(F)cc1F (stereo partly drawn) [Compound No. 5, 1-t-Butoxycarbonyl-2-[(1R,2R)-2-(2,4-difluorophenyl)-2-hydroxy-1-methyl-3-(1H-1,2,4-triazol-1-yl)propyl]-4-[4-(tetrahydropyranyloxy)phenyl]thiosemicarbazide] | > 16 | > 16 | –
C[C@@H](N(NC(=O)OC(C)(C)C)C(=S)Nc1ccc(F)cc1F)[C@](O)(Cn1cncn1)c1ccc(F)cc1F [Compound No. 2, 1-t-Butoxycarbonyl-2-[(1R,2R)-2-(2,4-difluorophenyl)-2-hydroxy-1-methyl-3-(1H-1,2,4-triazol-1-yl)propyl]-4-[2,4-difluorophenyl]thiosemicarbazide] | > 16 | > 16 | –

Source: patent US20060178415A1, “Azole derivatives as antifungal agents” (priority 2002, published 2006)
